Test [1] deals with thapsigargin-induced IL-2 production in human whole blood.
Test [2] relates to thapsigargin-induced IFN-g production in human whole blood. Type of test: cell-based.
Where [3] appears, read: read-out: Analogue Activity (IC50) WB/IL-2.
[4] abbreviates: read-out: Analogue Activity (IC50) WB/IFNg.

We go through ten compounds from patent publication US7820623B2 (priority 2006, dated 2010).

pIC50: −log10 of the molar value. Where two headings read alike, the source gives them in different places. Bridge positions count the residues as written; N and C are the ends. Square brackets hold non-standard residues; d marks the D form. Peptide text beside a SMILES is read from it. 1Nal = N[C@@H](Cc1cccc2ccccc12)C(=O)O

`CC[C@H](C)[C@@H]1NC(=O)[C@H](CCCCN)NC(=O)[C@@H](NC(=O)[C@H](CCCCN)NC(=O)[C@@H](NC(=O)[C@H](CC(N)=O)NC(=O)[C@@H](NC(=O)[C@@H](NC(=O)[C@@H](NC(=O)CN)C(C)C)[C@@H](C)CC)[C@@H](C)CC)C(C)C)CSSC[C@@H]2NC(=O)[C@H](CCCCN)NC(=O)CNC(=O)[C@H](Cc3ccccc3)NC(=O)[C@H](CCCNC(=N)N)NC(=O)[C@H](CCSC)NC(=O)CNC(=O)[C@H](C)NC(=O)[C@H](CCCCN)NC(=O)[C@H](CCCCN)NC(=O)[C@@H]3CSSC[C@@H](C(=O)N[C@H](C(=O)N4CCC[C@H]4C(=O)N[C@@H](CCC(=O)O)C(=O)O)[C@@H](C)O)NC(=O)[C@H](Cc4c[nH]cn4)NC(=O)[C@H](CSSC[C@H](NC(=O)[C@H](CCC(N)=O)NC(=O)[C@H](CCCNC(=N)N)NC(=O)[C@H](CO)NC1=O)C(=O)N[C@@H](CC(C)C)C(=O)N[C@@H](CCC(=O)O)C(=O)N1CCC[C@H]1C(=O)N3)NC(=O)[C@H](CCCCN)NC(=O)CNC(=O)[C@H](CC(N)=O)NC(=O)[C@H](CCSC)NC2=O` [K38E] (H-GVIINVKCKISRQCLEPCKKAGMRFGKCMNGKCHCTPE-OH; disulfide 8-28, 14-33, 18-35): the pIC50 in test [1] (setting [3]) is 9.28; in test [2] (setting [4]), 9.15.
In the same order, the values of `CC[C@H](C)[C@@H]1NC(=O)[C@H](CCCCN)NC(=O)[C@@H](NC(=O)[C@H](CCCCN)NC(=O)[C@@H](NC(=O)[C@H](CC(N)=O)NC(=O)[C@@H](NC(=O)[C@@H](NC(=O)[C@@H](NC(=O)CN)C(C)C)[C@@H](C)CC)[C@@H](C)CC)C(C)C)CSSC[C@@H]2NC(=O)[C@H](CCCCN)NC(=O)CNC(=O)[C@H](Cc3ccccc3)NC(=O)[C@H](CCCNC(=N)N)NC(=O)[C@H](CCSC)NC(=O)CNC(=O)[C@H](C)NC(=O)[C@H](CCCCN)NC(=O)[C@H](CCCCN)NC(=O)[C@@H]3CSSC[C@@H](C(=O)N[C@H](C(=O)N4CCC[C@H]4C(=O)N[C@@H](CCCCN)C(=O)O)[C@@H](C)O)NC(=O)[C@H](Cc4c[nH]cn4)NC(=O)[C@H](CSSC[C@H](NC(=O)[C@H](CCC(N)=O)NC(=O)[C@H](CCCNC(=N)N)NC(=O)[C@H](CO)NC1=O)C(=O)N[C@@H](CC(C)C)C(=O)N[C@@H](CCC(=O)O)C(=O)N1CCC[C@H]1C(=O)N3)NC(=O)[C@H](CCCCN)NC(=O)[C@H](CCC(=O)O)NC(=O)[C@H](CC(N)=O)NC(=O)[C@H](CCSC)NC2=O` [G31E] (H-GVIINVKCKISRQCLEPCKKAGMRFGKCMNEKCHCTPK-OH; disulfide 8-28, 14-33, 18-35) are 10.02 and 9.95.
For the compound “GVIINVKCKISRQCLEPCKKAGARFGKCMNGKCHCTPK [Ala-23 (SEQ ID No: 1419)]”, the pIC50 in test [1] (read-out: Average IC50 IL-2) and in test [2] (read-out: Average IC50 IFNg) was 9.56 each time.
Take `CC[C@H](C)[C@@H]1NC(=O)[C@H](CCCCN)NC(=O)[C@@H](NC(=O)[C@H](CCCCN)NC(=O)[C@@H](NC(=O)[C@H](CC(N)=O)NC(=O)[C@@H](NC(=O)[C@@H](NC(=O)[C@@H](NC(=O)CN)C(C)C)[C@@H](C)CC)[C@@H](C)CC)C(C)C)CSSC[C@@H]2NC(=O)[C@H](CCC(=O)O)NC(=O)CNC(=O)[C@H](Cc3ccccc3)NC(=O)[C@H](CCCNC(=N)N)NC(=O)[C@H](CCSC)NC(=O)CNC(=O)[C@H](C)NC(=O)[C@H](CCCCN)NC(=O)[C@H](CCCCN)NC(=O)[C@@H]3CSSC[C@@H](C(=O)N[C@H](C(=O)N4CCC[C@H]4C(=O)N[C@@H](CCCCN)C(=O)O)[C@@H](C)O)NC(=O)[C@H](Cc4c[nH]cn4)NC(=O)[C@H](CSSC[C@H](NC(=O)[C@H](CCC(N)=O)NC(=O)[C@H](CCCNC(=N)N)NC(=O)[C@H](CO)NC1=O)C(=O)N[C@@H](CC(C)C)C(=O)N[C@@H](CCC(=O)O)C(=O)N1CCC[C@H]1C(=O)N3)NC(=O)[C@H](CCCCN)NC(=O)CNC(=O)[C@H](CC(N)=O)NC(=O)[C@H](CCSC)NC2=O` [K27E] (H-GVIINVKCKISRQCLEPCKKAGMRFGECMNGKCHCTPK-OH; disulfide 8-28, 14-33, 18-35): the values for the pIC50 in test [1] (setting [3]) and in test [2] (setting [4]) were 8.26 and 8.15, respectively.
Consider GVIINVKCKISPQCLKPCKDAGIRFGKCINGKCACTPK, for which the pIC50 in test [1] (read-out: Average IC50 IL-2) and in test [2] (read-out: Average IC50 IFNg) was 9.29 throughout.
With `CC[C@H](C)[C@H](NC(=O)[C@@H](NC(=O)CN)C(C)C)C(=O)N[C@H](C(=O)N[C@@H](CC(N)=O)C(=O)N[C@H](C(=O)N[C@@H](CCCCN)C(=O)N[C@H]1CSSC[C@@H]2NC(=O)[C@H](CCCCN)NC(=O)CNC(=O)[C@H](Cc3ccccc3)NC(=O)[C@H](CCCNC(=N)N)NC(=O)[C@H](CCSC)NC(=O)CNC(=O)[C@H](C)NC(=O)[C@H](CCCCN)NC(=O)[C@H](CCCCN)NC(=O)[C@@H]3CSSC[C@@H](C(=O)N[C@H](C(=O)N4CCC[C@H]4C(=O)N[C@@H](CCCCN)C(=O)O)[C@@H](C)O)NC(=O)[C@H](Cc4c[nH]cn4)NC(=O)[C@H](CSSC[C@H](NC(=O)[C@H](CCC(N)=O)NC(=O)[C@H](CCCNC(=N)N)NC(=O)[C@H](CO)NC(=O)[C@H](C)NC(=O)[C@H](CCCCN)NC1=O)C(=O)N[C@@H](CC(C)C)C(=O)N[C@@H](CCC(=O)O)C(=O)N1CCC[C@H]1C(=O)N3)NC(=O)[C@H](CCCCN)NC(=O)CNC(=O)[C@H](CC(N)=O)NC(=O)[C@H](CCSC)NC2=O)C(C)C)[C@@H](C)CC` [I10A] (H-GVIINVKCKASRQCLEPCKKAGMRFGKCMNGKCHCTPK-OH; disulfide 8-28, 14-33, 18-35), the pIC50 is 10.30 in test [1] (setting [3]) and 10.53 in test [2] (setting [4]).
Regarding `CC[C@H](C)[C@@H]1NC(=O)[C@H](CCCCN)NC(=O)[C@@H](NC(=O)[C@H](CCCCN)NC(=O)[C@@H](NC(=O)[C@H](CC(N)=O)NC(=O)[C@@H](NC(=O)[C@@H](NC(=O)[C@@H](NC(=O)CN)C(C)C)[C@@H](C)CC)[C@@H](C)CC)C(C)C)CSSC[C@@H]2NC(=O)[C@H](CCCCN)NC(=O)[C@H](Cc3cccc4ccccc34)NC(=O)[C@H](Cc3ccccc3)NC(=O)[C@H](CCCNC(=N)N)NC(=O)[C@H](CCSC)NC(=O)CNC(=O)[C@H](C)NC(=O)[C@H](CCCCN)NC(=O)[C@H](CCCCN)NC(=O)[C@@H]3CSSC[C@@H](C(=O)N[C@H](C(=O)N4CCC[C@H]4C(=O)N[C@@H](CCCCN)C(=O)O)[C@@H](C)O)NC(=O)[C@H](Cc4c[nH]cn4)NC(=O)[C@H](CSSC[C@H](NC(=O)[C@H](CCC(N)=O)NC(=O)[C@H](CCCNC(=N)N)NC(=O)[C@H](CO)NC1=O)C(=O)N[C@@H](CC(C)C)C(=O)N[C@@H](CCC(=O)O)C(=O)N1CCC[C@H]1C(=O)N3)NC(=O)[C@H](CCCCN)NC(=O)CNC(=O)[C@H](CC(N)=O)NC(=O)[C@H](CCSC)NC2=O` [G26Nal] (H-GVIINVKCKISRQCLEPCKKAGMRF[1Nal]KCMNGKCHCTPK-OH; disulfide 8-28, 14-33, 18-35), the results for the pIC50 in test [1] (setting [3]) and in test [2] (setting [4]) were 8.00 and 7.97, respectively.
On the same counts, the results for `CC[C@H](C)[C@@H]1NC(=O)[C@H](CCCCN)NC(=O)[C@@H](NC(=O)[C@H](CCCCN)NC(=O)[C@@H](NC(=O)[C@H](CC(N)=O)NC(=O)[C@@H](NC(=O)[C@@H](NC(=O)[C@@H](NC(=O)CN)C(C)C)[C@@H](C)CC)[C@@H](C)CC)C(C)C)CSSC[C@@H]2NC(=O)[C@H](CCCCN)NC(=O)CNC(=O)[C@H](Cc3ccccc3)NC(=O)[C@H](CCCNC(=N)N)NC(=O)[C@H](CCSC)NC(=O)CNC(=O)[C@H](C)NC(=O)[C@H](CCCCN)NC(=O)[C@H](CCCCN)NC(=O)[C@@H]3CSSC[C@@H](C(=O)N[C@H](C(=O)N4CCC[C@H]4C(=O)N[C@@H](CCCCN)C(=O)O)[C@@H](C)O)NC(=O)[C@H](Cc4c[nH]cn4)NC(=O)[C@H](CSSC[C@H](NC(=O)[C@H](CCC(N)=O)NC(=O)[C@H](CCCNC(=N)N)NC(=O)[C@H](CO)NC1=O)C(=O)N[C@@H](CC(C)C)C(=O)N[C@@H](CCC(=O)O)C(=O)N1CCC[C@H]1C(=O)N3)NC(=O)[C@H](CCCCN)NC(=O)[C@H](Cc1cccc3ccccc13)NC(=O)[C@H](CC(N)=O)NC(=O)[C@H](CCSC)NC2=O` [G31Nal] (H-GVIINVKCKISRQCLEPCKKAGMRFGKCMN[1Nal]KCHCTPK-OH; disulfide 8-28, 14-33, 18-35) are 9.48 and 9.33.
Turning to `CC[C@H](C)[C@H](NC(=O)[C@@H](NC(=O)CN)C(C)C)C(=O)N[C@H](C(=O)N[C@@H](CC(N)=O)C(=O)N[C@H](C(=O)N[C@@H](CCCCN)C(=O)N[C@H]1CSSC[C@@H]2NC(=O)[C@H](CCCCN)NC(=O)CNC(=O)[C@H](Cc3ccccc3)NC(=O)[C@H](CCCNC(=N)N)NC(=O)[C@H](CCSC)NC(=O)CNC(=O)[C@H](C)NC(=O)[C@H](CCCCN)NC(=O)[C@H](CCCCN)NC(=O)[C@@H]3CSSC[C@@H](C(=O)N[C@H](C(=O)N4CCC[C@H]4C(=O)N[C@@H](CCCCN)C(=O)O)[C@@H](C)O)NC(=O)[C@H](Cc4c[nH]cn4)NC(=O)[C@H](CSSC[C@H](NC(=O)[C@H](CCC(N)=O)NC(=O)[C@H](CCCNC(=N)N)NC(=O)[C@H](CO)NC(=O)[C@H](CCC(=O)O)NC(=O)[C@H](CCCCN)NC1=O)C(=O)N[C@@H](CC(C)C)C(=O)N[C@@H](CCC(=O)O)C(=O)N1CCC[C@H]1C(=O)N3)NC(=O)[C@H](CCCCN)NC(=O)CNC(=O)[C@H](CC(N)=O)NC(=O)[C@H](CCSC)NC2=O)C(C)C)[C@@H](C)CC` [I10E] (H-GVIINVKCKESRQCLEPCKKAGMRFGKCMNGKCHCTPK-OH; disulfide 8-28, 14-33, 18-35), the figures for the pIC50 in test [1] (setting [3]) and in test [2] (setting [4]) were 8.59 and 8.56, respectively.
As for `CC[C@H](C)[C@@H]1NC(=O)[C@H](CCCCN)NC(=O)[C@@H](NC(=O)[C@H](CCCCN)NC(=O)[C@@H](NC(=O)[C@H](CC(N)=O)NC(=O)[C@H](CCC(=O)O)NC(=O)[C@@H](NC(=O)[C@@H](NC(=O)CN)C(C)C)[C@@H](C)CC)C(C)C)CSSC[C@@H]2NC(=O)[C@H](CCCCN)NC(=O)CNC(=O)[C@H](Cc3ccccc3)NC(=O)[C@H](CCCNC(=N)N)NC(=O)[C@H](CCSC)NC(=O)CNC(=O)[C@H](C)NC(=O)[C@H](CCCCN)NC(=O)[C@H](CCCCN)NC(=O)[C@@H]3CSSC[C@@H](C(=O)N[C@H](C(=O)N4CCC[C@H]4C(=O)N[C@@H](CCCCN)C(=O)O)[C@@H](C)O)NC(=O)[C@H](Cc4c[nH]cn4)NC(=O)[C@H](CSSC[C@H](NC(=O)[C@H](CCC(N)=O)NC(=O)[C@H](CCCNC(=N)N)NC(=O)[C@H](CO)NC1=O)C(=O)N[C@@H](CC(C)C)C(=O)N[C@@H](CCC(=O)O)C(=O)N1CCC[C@H]1C(=O)N3)NC(=O)[C@H](CCCCN)NC(=O)CNC(=O)[C@H](CC(N)=O)NC(=O)[C@H](CCSC)NC2=O` [I4E] (H-GVIENVKCKISRQCLEPCKKAGMRFGKCMNGKCHCTPK-OH; disulfide 8-28, 14-33, 18-35), the pIC50 in test [1] (setting [3]) was 9.66; in test [2] (setting [4]), 9.72.
